From patent publication US8741932B2, “Imidazopyridine derivatives” (Piramal Enterprises Limited, priority 2009, dated 2014) come the findings set out here.

One experiment deals with STAT3. Description: STAT3 bioassay (Hela Stat3-luc, luciferase). Format: cell-based. Conditions: Oncostatin M induction. The method, then: Cells were seeded (Hela Stat3-luc, ATCC P/N 30-2002) in a white 96 well plate (Nunc cat.no.136101) at a density of 20,000cells/well in 179 μl volume per well (DMEM from Sigma containing 10% FCS). The plate was incubated for 24 hours at 37° C./5% CO2. The cells (wells in triplicates) were then treated with 1 μl/well of 200× stock of the desired compound concentration prepared in 100% DMSO. Curcumin was used as a standard or positive control, added 10 μg/ml in triplicate. DMSO was used as medium control (1 μl/well added in triplicates). The plate was incubated at 37° C./5% CO2 for 1 hour. 20 μl/well Oncostatin M (Oncostatin M, Human, Recombinant, E. coli, Cat.No. 496260, 10 μg from Calbiochem) was added to treated wells, induction control (in triplicate) (1000 ng/ml stock prepared in serum free medium to get final concentration 100 ng/ml). The plate was then incubated for 7-8 hours at 37° C./5% CO2 for induction. A typical assay would consist of triplicate of medium control, triplicate of induction control, triplicate of positive/standard control and test compounds at desired concentration in triplicates. For termination Luciferase assay protocol was followed where the culture medium was removed from all the wells.
200 μl well of PBS was added to remove traces of medium and compound. The PBS was discarded. 40 μl/well of 1× lysis buffer was added to all the wells. The plate was incubated at RT for 20 minutes with intermittent shaking. 100 μl/well of LAB reagent was added to all the wells in dark. {LAB reagent for 1 plate=8 ml Luciferase assay buffer (LAB)+1 ml Coenzyme A (Sigma cat no. C3019) (2.1 mg/ml stock in LAB)+530 μL of ATP (Sigma cat.no.A2383) (5.85 mg/ml stock in LAB)+1 ml luciferin reagent (Promega cat no.245355) (2 mg/ml stock in LAB, protect from light)}.
The luminescence was immediately read on polar star. The values were expressed as percentage inhibition, in terms of treated values to that STAT3 (induction control). IC50 values were calculated from graphs using these percentages.

The target of another experiment is T1, PI3Kα kinase (Homo sapiens, UniProt P42336).
T1 construct: purchased Millipore, USA
T1 sequence (P42336 whole entry): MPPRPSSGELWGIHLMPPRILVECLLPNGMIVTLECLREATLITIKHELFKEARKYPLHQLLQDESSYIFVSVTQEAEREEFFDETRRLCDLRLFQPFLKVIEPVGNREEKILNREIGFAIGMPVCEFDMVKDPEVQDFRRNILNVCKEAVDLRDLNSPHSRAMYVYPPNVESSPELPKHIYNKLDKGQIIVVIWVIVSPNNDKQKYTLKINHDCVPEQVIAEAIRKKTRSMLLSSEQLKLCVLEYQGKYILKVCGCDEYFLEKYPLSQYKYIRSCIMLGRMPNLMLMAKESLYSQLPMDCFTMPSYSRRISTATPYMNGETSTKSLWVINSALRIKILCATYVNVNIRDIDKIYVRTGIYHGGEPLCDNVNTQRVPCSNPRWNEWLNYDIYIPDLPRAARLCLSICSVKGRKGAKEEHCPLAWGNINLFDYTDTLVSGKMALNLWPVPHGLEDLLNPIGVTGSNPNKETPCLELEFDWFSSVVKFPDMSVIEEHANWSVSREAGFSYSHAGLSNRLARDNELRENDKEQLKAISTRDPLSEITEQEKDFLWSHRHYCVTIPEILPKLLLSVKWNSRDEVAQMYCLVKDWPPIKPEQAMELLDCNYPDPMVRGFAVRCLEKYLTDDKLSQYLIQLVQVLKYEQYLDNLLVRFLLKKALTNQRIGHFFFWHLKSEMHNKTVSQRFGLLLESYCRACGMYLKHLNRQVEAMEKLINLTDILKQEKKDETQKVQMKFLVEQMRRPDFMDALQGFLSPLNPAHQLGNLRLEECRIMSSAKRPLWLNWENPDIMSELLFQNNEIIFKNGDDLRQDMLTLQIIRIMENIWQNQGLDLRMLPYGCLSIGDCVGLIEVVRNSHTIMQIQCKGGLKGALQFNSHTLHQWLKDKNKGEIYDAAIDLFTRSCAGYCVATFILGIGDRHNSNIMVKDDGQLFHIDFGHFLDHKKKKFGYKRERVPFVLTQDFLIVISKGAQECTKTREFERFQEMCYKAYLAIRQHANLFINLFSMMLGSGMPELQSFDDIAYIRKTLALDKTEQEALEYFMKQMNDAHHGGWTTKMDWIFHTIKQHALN
T1 sequence (P27986 whole entry partner): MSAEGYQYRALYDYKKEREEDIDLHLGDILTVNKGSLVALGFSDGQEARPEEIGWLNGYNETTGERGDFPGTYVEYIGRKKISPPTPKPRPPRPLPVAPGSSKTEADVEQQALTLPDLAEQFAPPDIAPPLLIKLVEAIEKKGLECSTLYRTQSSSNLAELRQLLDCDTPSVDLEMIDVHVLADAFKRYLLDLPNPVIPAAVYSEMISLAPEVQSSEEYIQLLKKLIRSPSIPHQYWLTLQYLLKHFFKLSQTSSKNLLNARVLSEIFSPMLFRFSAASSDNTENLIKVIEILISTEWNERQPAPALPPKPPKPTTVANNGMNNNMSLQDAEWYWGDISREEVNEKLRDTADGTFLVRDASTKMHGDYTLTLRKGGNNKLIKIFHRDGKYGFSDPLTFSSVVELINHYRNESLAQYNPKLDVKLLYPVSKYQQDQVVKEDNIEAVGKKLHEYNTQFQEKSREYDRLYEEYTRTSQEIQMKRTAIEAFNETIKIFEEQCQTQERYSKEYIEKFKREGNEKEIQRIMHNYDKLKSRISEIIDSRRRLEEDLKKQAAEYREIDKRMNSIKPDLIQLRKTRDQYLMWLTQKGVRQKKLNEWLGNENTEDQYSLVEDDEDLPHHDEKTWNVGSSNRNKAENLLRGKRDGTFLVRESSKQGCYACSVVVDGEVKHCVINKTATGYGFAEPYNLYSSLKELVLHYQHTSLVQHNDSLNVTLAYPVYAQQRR
Description: Kinase assay (PI3Kα). Format: biochemical. Conditions: read-out: IC50 (μM) for PI3K inhibition. The method, then: The kinase reaction was carried out in a 25 μL volume in a 1.5 mL microcentrifuge tube. The reaction mixture consisted of kinase buffer (10 mM Hepes, pH 7.5, 50 mM MgCl2), 20 ng PI3Kα kinase (Millipore, USA), 12.5 μg phosphotidylinositol (PI), 10 μM ATP and 1 μCi ^32γ P […]. […] The reactions were incubated at 30° C. for 20 minutes and were terminated by adding 1:1 mixture of MeOH and CHCl3. The tube contents were mixed on a vortex mixer and centrifuged at 10000 rpm for 2 minutes. 10 μL of the organic (lower) phase was spotted on to a TLC plate (silica, mobile phase: n-propanol and 2 M glacial acetic acid in 65:35 ratio). The plates were dried and exposed to an X-ray film. The bands appearing as a result of ^32γ P incorporation in PI were quantitated using the Quantityl)ne (BioRad, USA) densitometry program. PI-103 (Calbiochem, USA) was used as a standard.

In another experiment the test system is IL-6. The experiment in a line: Human monocyte assay, LPS-stimulated IL-6. Format: cell-based. The following applies: human monocytes, 1 μg/ml LPS, 5 hours. How it is done:
The assay was designed as in the reference, Physiol.
Peripheral blood mononuclear cells (hPBMC) were harvested from human blood and suspended in RPMI 1640 culture medium containing 10% FCS, 100 U/mL penicillin and […] streptomycin (assay medium). Monocytes in the hPBMCs were counted using a Coulter Counter following which the cells were resuspended at 2×10^5 monocytes/mL. A cell suspension containing 2×10^4 monocytes was aliquoted per well of a 96-well plate. Subsequently, the hPBMCs were incubated for 4-5 hours at 37° C., 5% CO2 (During the incubation, the monocytes adhered to the bottom of 96-well plastic culture plate). Following the incubation, the non-adherent lymphocytes were washed with assay medium and the adherent monocytes re-fed with assay medium. After a 48-hour incubation period (37° C., 5% CO2), monocytes were pretreated with various concentrations of representative compounds of present invention (refer to table 6 and 7) (prepared in DMSO) or vehicle (0.5% DMSO) for 30 minutes and stimulated with 1 μg/ml LPS (Escherchia coli 0111:B4, Sigma Chemical Co., St. Louis, Mo.). The incubation was continued for 5 hours at 37° C., 5% CO2. Supernatants were harvested, assayed for IL-6 and TNF-α by ELISA as described by the manufacturer (BD Biosciences, USA). Dexamethasone (10 μM) was used as standard for this assay. […] Biological results for both IL-6 and TNFα are indicated in Table 6 and Table 7 respectively.

In a further experiment the test system is A549. The experiment in a line: Cytotoxicity assay (propidium iodide), A549. Format: cell-based. The following applies: Homo sapiens; A549 (C1a, lung); 48 hours.
Another experiment relates to H460. Description: Cytotoxicity assay (propidium iodide), H460. It is filed as cell-based. Conditions: Homo sapiens, NCI-H460; H460 (C1b, lung); 48 hours.
For a further experiment, the system named is A2780. The experiment in a line: Cytotoxicity assay (propidium iodide), A2780. It is filed as cell-based. Conditions: for inhibition at 1 µM / % inhibition at 1 μM: A2780 (C3a).
A further experiment concerns PC3. Description: Cytotoxicity assay (propidium iodide), PC3. The following applies: for inhibition at 1 µM: Homo sapiens, PC-3, read-out: % inhibition at 1 μM; for % inhibition at 1 μM: PC3 (C2a).

pIC50: −log10 of the molar value.

Usually pIC50 stands for −log10 of the IC50, conventionally taken in molar units. As a reminder, the IC50 is the concentration at which inhibition is half-maximal. Consider `Cc1cc(S(=O)(=O)N(C)N=Cc2cnc3ccc(-c4cccnc4)cn23)ccc1Br` [Example 22, 4-Bromo-N, 3-dimethyl-N′-((6-(pyridine-3-yl)imidazo[1,2-a]pyridine-3-yl)methylene) benzenesulfonohydrazide], for which the pIC50 in the experiment on STAT3 (Homo sapiens) was 5.30 to 7.00. In addition, the figures for the IC50 on PI3Kα kinase and in the experiment with IL-6 (Monocyte) were 0.01 to 0.5 µM and not below 5 µM, respectively.

Turning to `Cc1ccccc1S(=O)(=O)N(C)/N=C/c1cnc2ccc(-c3cccnc3)cn12` [Example 53, (E)-N, 2-dimethyl-N′-((6-(pyridin-3-yl)imidazo[1,2-a]pyridin-3-yl)methylene)benzenesulfonohydrazide], the pIC50 in the experiment with A549 and in the experiment on H460 was 5.30 to 8.00 in each case. In the experiment on IL-6 (Monocyte), this compound displayed an IC50 of 0.001 to 5 µM.

Take `CN(/N=C/c1cnc2ccc(-c3cccnc3)cn12)S(=O)(=O)c1ccccc1OC(F)(F)F` [Example 54, (E)-N-methyl-N′-((6-(pyridin-3-yl)imidazo[1,2-a]pyridin-3-yl)methylene)-2-(trifluoromethoxy)benzenesulfonohydrazide]: the pIC50 with A549 and in the experiment on H460 was 5.30 to 8.00 throughout. The compound further displayed an IC50 with IL-6 (Monocyte) of 0.001 to 5 µM.

Regarding `CN(/N=C/c1cnc2ccc(-c3cccnc3)cn12)S(=O)(=O)c1cc(C(F)(F)F)ccc1Cl` [Example 65, (E)-2-chloro-N-methyl-N′-((6-(pyridin-3-yl)imidazo[1,2-a]pyridin-3-yl)methylene)-5-(trifluoromethyl)benzenesulfonohydrazide], the pIC50 in the experiment on A549 and with H460 was 5.30 to 8.00 each time. Moreover, in the experiment with IL-6 (Monocyte), the IC50 lay within 0.001 to 5 µM.

Turning to `COc1ccc(F)cc1S(=O)(=O)N(C)/N=C/c1cnc2ccc(-c3cccnc3F)cn12` [Example 88, (E)-5-Fluoro-N′-((6-(2-fluoropyridin-3-yl)imidazo[1,2-a]pyridin-3-yl)methylene)-2-methoxy-N-methylbenzenesulfonohydrazide], the pIC50 in the experiment on A549 and with H460 was 5.30 to 8.00 each time. The compound further displayed an IC50 in the experiment on IL-6 (Monocyte) of 0.001 to 5 µM.

In general, inhibition refers to the drop in the measured response relative to a control, in per cent. In the case of `COc1ccc(Br)cc1S(=O)(=O)N(C)/N=C/c1cnc2ccc(-c3cccnc3F)cn12` [Example 91, (E)-5-bromo-N′-((6-(2-fluoropyridin-3-yl)imidazo[1,2-a]pyridin-3-yl)methylene)-2-methoxy-N-methylbenzenesulfonohydrazide], the inhibition at 1 µM in the experiment on A2780 (Homo sapiens) and in the experiment with PC3 was more than 50% throughout.

Regarding `Cc1ccc(F)cc1S(=O)(=O)N(C)/N=C/c1cnc2c(C)cc(-c3cccnc3)cn12` [Example 100, (E)-5-Fluoro-N,2-dimethyl-N′-((8-methyl-6-(pyridin-3-yl)imidazo[1,2-a]pyridin-3-yl)methylene)benzenesulfonohydrazide], the pIC50 in the experiment with A549 is 5.30 to 8.00; in the experiment with A2780 (Homo sapiens, A2780 (C3a, ovarian), 48 hours), 5.30 to 8.00; with H460, 5.30 to 8.00. The IC50 at PI3Kα kinase was in the range of 0.01 to 0.5 µM.

For the compound `Cc1ccc(NC(=O)N(C)/N=C/c2cnc3ccc(-c4cccnc4)cn23)cc1` [Example 142, (E)-1-methyl-2-((6-(pyridin-3-yl)imidazo[1,2-a]pyridin-3-yl)methylene)-N-p-tolylhydrazinecarboxamide], the IC50 in the experiment on IL-6 (Monocyte) is not below 5 µM. For the same compound, the inhibition at 1 µM in the experiment with A2780 (Homo sapiens) and in the experiment with PC3 was 30 to 50% throughout.

With `Cc1ccc(F)c(NC(=O)N(C)/N=C/c2cnc3ccc(-c4cccnc4)cn23)c1` [Example 143, (E)-N-(2-fluoro-5-methylphenyl)-1-methyl-2-((6-(pyridin-3-yl)imidazo[1,2-a]pyridin-3-yl)methylene)hydrazinecarboxamide], in the experiment on IL-6 (Monocyte), the IC50 was 0.001 to 5 µM. For the same compound, the inhibition at 1 µM with A2780 (Homo sapiens) and in the experiment with PC3 was 30 to 50% in each case.

In the experiment with IL-6 (Monocyte), `Cc1ccc(F)cc1NC(=O)N(C)/N=C/c1cnc2ccc(-c3cccnc3)cn12` [Example 144, (E)-N-(5-fluoro-2-methylphenyl)-1-methyl-2-((6-(pyridin-3-yl)imidazo[1,2-a]pyridin-3-yl)methylene)hydrazinecarboxamide] showed an IC50 not below 5 µM. The inhibition at 1 µM with A2780 (Homo sapiens) and with PC3 was 30 to 50% in each case.

`Cc1ccc(F)c(NC(=O)N(C)N=Cc2cnc3ccc(Br)cn23)c1` [Example 146]: the IC50 in the experiment on IL-6 is not below 5 µM. For the same compound, the “% inhibition at 1 μM” value in the experiment on A2780 and in the experiment with PC3 was “++ (% Inhibition >50%)” throughout.

`CN(/N=C/c1cnc2ccc(-c3cccnc3)cn12)C(=S)Nc1ccc(C#N)cc1` [Example 149, (E)-N-(4-cyanophenyl)-1-methyl-2-((6-(pyridin-3-yl)imidazo[1,2-a]pyridin-3-yl)methylene)hydrazinecarbothioamide] yielded an IC50 in the experiment with IL-6 (Monocyte) not below 5 µM. For the same compound, the inhibition at 1 µM in the experiment on A2780 (Homo sapiens) and in the experiment on PC3 was 30 to 50% in each case.

Turning to `COc1ccc(NC(=S)N(C)/N=C/c2cnc3ccc(-c4cccnc4)cn23)cc1` [Example 150, (E)-N-(4-methoxyphenyl)-1-methyl-2-((6-(pyridin-3-yl)imidazo[1,2-a]pyridin-3-yl)methylene)hydrazinecarbothioamide], the IC50 with IL-6 (Monocyte) was not below 5 µM. Besides, the inhibition at 1 µM in the experiment with A2780 (Homo sapiens) and with PC3 was 30 to 50% each time.

With `CN(N=Cc1cnc2ccc(Br)cn12)C(=S)Nc1ccc(C(F)(F)F)cc1` [Example 152, 2-((6-bromoimidazo[1,2-a]pyridin-3-yl)methylene)-1-methyl-N-(4-(trifluoromethyl)phenyl) hydrazinecarbothioamide], the IC50 in the experiment with IL-6 lay within 0.001 to 5 µM. The “% inhibition at 1 μM” value with A2780 and with PC3 was “+ (50% ≧ % Inhibition ≧ 30%)” in each case.

As to “N-methyl-1-phenyl-N′-((6-pyridin-3-yl) imidazo[1,2-a]pyridine-3-yl) methylene)benzenesulfonohydrazide [Example 28]”, on STAT3, the pIC50 was less than 5.00. In the experiment on IL-6, this compound yielded an IC50 of 0.001 to 5 µM.
